Assay: Stability study of polymorph U of Azilsartan Kamedoxomil at 5±3° C. for 6 months
Type: physicochemical
Details: for 01) Description White to off-white coloured powder / 02) Identification By HPLC: retention time of the major peak should correspond to Azilsartan Kamedoxomil Standard preparation / 03) Loss on drying (at 60° C. under vacuum for 3 hrs) NMT 1.0% w/w / 04) Related substances Method 1: By HPLC (by Area %) i) Azilsartan NMT 1.0% / 04) Related substances Method 1: By HPLC (by Area %) ii) Azilsartan ester NMT 0.3% / 04) Related substances Method 1: By HPLC (by Area %) iii) Impurity at RRT about 1.04 NMT 0.3% / 04) Related substances Method 1: By HPLC (by Area %) iv) Any individual unspecified impurity NMT 0.2% / 04) Related substances Method 1: By HPLC (by Area %) v) Total impurities NMT 2.5% / 04) Related substances Method 2: By GCHS i) Content of 2, 3 butanedione by GCHS: NMT 0.5% / 05) Assay by HPLC (On dried basis) NLT 97.5% w/w and NMT 102.0% w/w: stability testing at 5±3° C.

With `CCOc1nc2cccc(C(=O)OCc3oc(=O)oc3C)c2n1Cc1ccc(-c2ccccc2-c2noc(=O)[nH]2)cc1.[K]` [polymorph U, (5-methyl-2-oxo-1,3-dioxo-4-yl)methyl-2-ethoxy-1-1{[2′-(5-oxo-4,5-dihydro-1,2,4-oxadiazol-3-yl)biphenyl-4yl]methyl}-1H-benzimidazole-7-carboxylate monopotassium salt] the “change in XRPD pattern (polymorphic change)” value (stability testing at 5±3° C. for 6 Months) was “no change”, the “01) Description White to off-white coloured powder” value (6 M) was “White” and the “02) Identification By HPLC: retention time of the major peak should correspond to Azilsartan Kamedoxomil Standard preparation” value (6 M) was “Complies”. For the same compound, the “03) Loss on drying (at 60° C. under vacuum for 3 hrs) NMT 1.0% w/w” value (6 M) was 0.26% w/w, the “04) Related substances Method 1: By HPLC (by Area %) i) Azilsartan NMT 1.0%” value (6 M) was 0.18% and the “04) Related substances Method 1: By HPLC (by Area %) ii) Azilsartan ester NMT 0.3%” value (6 M) was 0.01%. The “04) Related substances Method 1: By HPLC (by Area %) iii) Impurity at RRT about 1.04 NMT 0.3%” value (6 M) was 0.08%, the “04) Related substances Method 1: By HPLC (by Area %) iv) Any individual unspecified impurity NMT 0.2%” value (6 M) was 0.03% and the “04) Related substances Method 1: By HPLC (by Area %) v) Total impurities NMT 2.5%” value (6 M) was 0.43%. The “04) Related substances Method 2: By GCHS i) Content of 2, 3 butanedione by GCHS: NMT 0.5%” value (6 M) was 0.13%, the “05) Assay by HPLC (On dried basis) NLT 97.5% w/w and NMT 102.0% w/w” value (6 M) was 100.3% w/w and the “01) Description White to off-white coloured powder” value (Initial) was “White”. The “02) Identification By HPLC: retention time of the major peak should correspond to Azilsartan Kamedoxomil Standard preparation” value (Initial) was “Complies”, the “03) Loss on drying (at 60° C. under vacuum for 3 hrs) NMT 1.0% w/w” value (Initial) was 0.44% w/w and the “04) Related substances Method 1: By HPLC (by Area %) i) Azilsartan NMT 1.0%” value (Initial) was 0.19%. For the same compound, the “04) Related substances Method 1: By HPLC (by Area %) ii) Azilsartan ester NMT 0.3%” value (Initial) was 0.01%, the “04) Related substances Method 1: By HPLC (by Area %) iii) Impurity at RRT about 1.04 NMT 0.3%” value (Initial) was 0.09% and the “04) Related substances Method 1: By HPLC (by Area %) iv) Any individual unspecified impurity NMT 0.2%” value (Initial) was 0.03%. For the same compound, the “04) Related substances Method 1: By HPLC (by Area %) v) Total impurities NMT 2.5%” value (Initial) was 0.56%, the “04) Related substances Method 2: By GCHS i) Content of 2, 3 butanedione by GCHS: NMT 0.5%” value (Initial) was 0.13% w/w and the “05) Assay by HPLC (On dried basis) NLT 97.5% w/w and NMT 102.0% w/w” value (Initial) was 101.7 w/w. For the same compound, the Stability (studied at 5±3° C.) was “stable”.
